Data reported in article PMC11274883, “Anticancer Effect of Pt^[sequence], Pt^II5MESS, Pt^II56MESS and Their Platinum(IV)-Dihydroxy Derivatives against Triple-Negative Breast Cancer and Cisplatin-Resistant Colorectal Cancer” (Cancers, 2024).

What was measured:
Format in all cases: cell-based
A2780 = assay: WST-1 cytotoxicity, 72 h
Experimental: (§1) Cells were seeded in 96-well flat-bottom culture plates at a concentration of 1000 cells per well. […] After 72 h, the medium was removed and replaced with new medium. The cell viability reagent WST-1 (10 µL, Roche Diagnostics, Indianapolis, IN, USA) was added to each well. After an hour, the absorbance was measured at 450 nm using a versatile microplate reader (Bio-strategy, Campbellfield, VIC, Australia). Three separate experiments were performed, each with n = 3 replicates. GraphPad prism 10 was used to calculate apparent IC50 values using the nonlinear regression model Y = Bottom + (Top-Bottom)/(1 + 10^(X-LogIC50)) where Top and bottom are plateaus in the y-axis (% survival).

ADDP = assay: WST-1 cytotoxicity, 72 h
Experimental: as §1

HT29 = assay: WST-1 cytotoxicity, 72 h
Experimental: as §1

MCF−7 = assay: WST-1 cytotoxicity, 72 h
Experimental: as §1

MDA−MB−231 = assay: WST-1 cytotoxicity, 72 h
Experimental: as §1

MDA−MB−231 3D networks = assay: 3D bioprinted culture cytotoxicity (WST-1); conditions: 72 h, mean ± SEM
Description: (§2) To evaluate the cytotoxic effect of platinum(II) and (IV) complexes in 3D cell culture, MDA−MB−231 or HT29 cells were used to bioprint networks or spheroids with the non-contact drop-on-demand 3D RASTRUM bioprinter (Inventia Life Science, Alexandria, NSW, Australia). The 3D cultures use two constituents: bioink and activator. Cell pellets (2 × 10^6 cells) were resuspended in an activator reagent which forms an instant gel after its addition to the bioink by the bioprinter. The 3D large plug cell model with polyethylene glycol bioinks formulated to mimic the properties of in vivo tissue were chosen as follows. Matrix Px02.31 (activator F177 and bioink F242 with RGD: Fibronectin) was used for MDA−MB−231 3D embedded networks, Px02.00 (activator F177 and bioink F119 without RGD additives, Table S1) was used for MDA−MB−231 spheroids and matrix #Px02.09 (activator F177 and bioink F236 with adhesion peptides including, RGD: Fibronectin, and GFOGER: collagen type I to recapitulate rich in vivo tissue extracellular environments) was used for HT29 spheroids (Inventia Life Science) (Table S1). Each cell line was printed at 10,000 cells/well and loaded with the bioink fluids into the selected printer cartridge. After the automated priming of all fluids into the printer nozzles, each cell line was individually printed on tissue culture plates (Nunc^TM MicroWell^TM 96-Well, Nunclon Delta-Treated, Flat-Bottom Microplate, ThermoFisher #167008), with RASTRUM creating the 3D Large Plug across the 96-well plate. Following completion of the print run, 200 μL DMEM culture medium was added to each well using multichannel pipettes. The plate was then incubated for 7 days (humidified incubator with 5% CO2 at 37 °C) for compact and homogenous spheroid formation before the cytotoxicity assay. When the spheroids developed, post-7-day incubation, media was removed and replaced with 100 µL DMEM. […] Cytotoxicity was then assessed using the WST-1 assay as previously described in Section 2.3.

HT29 spheroids = assay: 3D bioprinted spheroid cytotoxicity (WST-1); conditions: 72 h, mean ± SEM
Description: as §2

MDA−MB−231 spheroids = assay: 3D bioprinted spheroid cytotoxicity (WST-1); conditions: 72 h, mean ± SEM
Description: as §2

HT29 cells = assay: TMRE mitochondrial membrane potential assay; conditions: complexes at IC50, FCCP 20 µM
Experimental: (§3) Cells were then treated with an IC50 drug concentration for each complex. At 24, 48 or 72 h, DMEM was removed, and cells were washed with PBS. Then, cells were incubated with 1 µM tetramethylrhodamine, ethyl ester (TMRE) stain for 30 min. TMRE was then removed, and cells were washed twice with PBS (0.2% BSA), after which phenol red-free media was added. […] The cells were then stained with TMRE, as described above, and the resulting solution was scanned for fluorescence. Three independent experiments in triplicates were implemented.

MDA−MB−231 cells = assay: TMRE mitochondrial membrane potential assay; conditions: complexes at IC50, FCCP 20 µM
Experimental: as §3

Cc1c(C)c2cccnc2c2ncccc12.N[C@H]1CCCC[C@@H]1N.O=[N+]([O-])[O-].O=[N+]([O-])[O-].[Pt+2] [Pt^II56MESS, [Pt(5,6-dimethyl-1,10-phenanthroline)(1S,2S-diaminocyclohexane)](NO3)2]
potency relative to cisplatin (A2780; A2780, 72 h): 113 fold
IC50 (A2780; A2780, 72 h, mean ± SEM): 190 nM
Selective cytotoxicity index (SCI) (A2780; IC50 MCF10A/IC50 A2780): 2.16
potency relative to cisplatin (ADDP; ADDP, 72 h): 147 fold
IC50 (ADDP; ADDP, 72 h, mean ± SEM): 760 ± 1270 nM
Selective cytotoxicity index (SCI) (ADDP; IC50 MCF10A/IC50 ADDP): 0.54
potency relative to cisplatin (HT29; HT29, 72 h): 432 fold
IC50 (HT29; HT29, 72 h, mean ± SEM): 180 nM
Selective cytotoxicity index (SCI) (HT29; IC50 MCF10A/IC50 HT29): 2.28
Selective cytotoxicity index (SCI) (MCF−7; IC50 MCF10A/IC50 MCF−7): 0.73
potency relative to cisplatin (MCF−7; MCF−7, 72 h): 59 fold
IC50 (MCF−7; MCF−7, 72 h, mean ± SEM): 560 nM
Selective cytotoxicity index (SCI) (MDA−MB−231; IC50 MCF10A/IC50 MDA−MB−231): 2.93
potency relative to cisplatin (MDA−MB−231; MDA−MB−231, 72 h): 93 fold
IC50 (MDA−MB−231; MDA−MB−231, 72 h, mean ± SEM): 140 nM
IC50 (MDA−MB−231 3D networks): 980 ± 1210 nM
IC50 (HT29 spheroids): 990 ± 1290 nM
IC50 (MDA−MB−231 spheroids): 2490 ± 1980 nM
MtMp (mitochondrial membrane potential) (HT29 cells; HT29, 24 h): 159.93 RFU
MtMp (mitochondrial membrane potential) (HT29 cells; HT29, 48 h): 151.44 RFU
MtMp (mitochondrial membrane potential) (HT29 cells; HT29, 72 h): 102.76 RFU
MtMp (mitochondrial membrane potential) (MDA−MB−231 cells; MDA−MB−231, 24 h): 155.45 RFU
MtMp (mitochondrial membrane potential) (MDA−MB−231 cells; MDA−MB−231, 48 h): 131.53 RFU
MtMp (mitochondrial membrane potential) (MDA−MB−231 cells; MDA−MB−231, 72 h): 86.51 RFU
